In US20230157950A1, “OROMUCOSAL FILM COMPOSITIONS COMPRISING EPINEPHRINE PARTICLES” (ReForm Therapeutics Ltd., priority 2021, published 2023):

Details: acetone, ethanol, methanol, isopropyl alcohol, alkaline water-based solvents, 25° C. and 45° C.

- time for which size and structure of epinephrine particles is maintained in solvents/dispersants: at least 6 hours
- solubility of epinephrine particles in the selected solvents/dispersants (up to 6 hours, SEM): none or very limited solubility
Compound: CNC[C@H](O)c1ccc(O)c(O)c1 [Epinephrine base particles, Epinephrine base]
